pIC50: −log10 of the molar value.

For one test, the target named is T1, c-kit (Homo sapiens, UniProt P10721).
T1 construct: MO7e (human megakaryocytic leukemia cell line) which had been arrested for 20 hr; endogenous in cells; host or cells: MO7e human megakaryocytic leukemia cell line
T1 sequence (P10721 26-976): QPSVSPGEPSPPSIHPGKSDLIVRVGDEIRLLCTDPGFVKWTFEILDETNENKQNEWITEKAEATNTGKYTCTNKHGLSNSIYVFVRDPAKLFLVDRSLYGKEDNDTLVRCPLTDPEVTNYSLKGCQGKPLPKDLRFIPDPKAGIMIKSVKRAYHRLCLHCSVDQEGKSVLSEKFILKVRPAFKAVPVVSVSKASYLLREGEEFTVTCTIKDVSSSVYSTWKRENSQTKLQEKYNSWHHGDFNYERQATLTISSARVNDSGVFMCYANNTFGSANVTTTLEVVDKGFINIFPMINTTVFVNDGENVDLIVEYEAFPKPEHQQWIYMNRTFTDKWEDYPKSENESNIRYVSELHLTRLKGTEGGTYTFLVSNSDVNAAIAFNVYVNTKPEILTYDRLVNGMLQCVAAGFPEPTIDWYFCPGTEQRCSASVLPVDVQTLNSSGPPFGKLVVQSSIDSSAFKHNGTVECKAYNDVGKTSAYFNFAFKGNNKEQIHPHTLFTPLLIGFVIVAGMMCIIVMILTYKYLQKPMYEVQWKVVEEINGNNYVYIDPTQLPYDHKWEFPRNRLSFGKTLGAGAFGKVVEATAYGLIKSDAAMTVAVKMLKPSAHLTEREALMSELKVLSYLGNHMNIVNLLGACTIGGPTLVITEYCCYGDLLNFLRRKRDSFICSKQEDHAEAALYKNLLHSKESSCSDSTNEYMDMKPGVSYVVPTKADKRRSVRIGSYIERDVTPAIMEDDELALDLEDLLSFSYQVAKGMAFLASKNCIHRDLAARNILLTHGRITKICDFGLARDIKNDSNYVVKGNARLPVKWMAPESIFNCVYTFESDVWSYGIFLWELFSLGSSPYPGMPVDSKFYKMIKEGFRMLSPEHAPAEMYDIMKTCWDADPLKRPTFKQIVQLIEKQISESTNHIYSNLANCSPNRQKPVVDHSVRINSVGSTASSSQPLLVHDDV
Description: Inhibitory activity against c-kit autophosphorylation (MO7e cells, h-SCF). It is filed as cell-based. The conditions noted are these: MO7e cells, h-SCF stimulation; read-out: c-kit IC50. As for the experimental part: Inhibitory Activity Against c-kit Autophosphorylation
MO7e (human megakaryocytic leukemia cell line) which had been arrested for 20 hr was seeded into 96 well plates at an amount of 2×10^5 per well. A solution of a test compound in DMSO was added, and a reaction was then allowed to proceed for one hr. Thereafter, the cells were stimulated by 50 ng/ml of h-SCF for 5 min, followed by replacement with lysate buffer to solubilize the cells.
Next, the solubilized cell sap was transferred to a 96-well plate with an anti-phosphotyrosine antibody (PY-20) previously immobilized thereon, and a reaction was allowed to proceed. Thereafter, the cells were reacted with an anti-c-kit antibody (c-19, Santa Cruz) as a primary antibody and were labelled with GAR (anti-rabbit IgG, horseradish peroxidase, Amersham) as a secondary antibody. Color development was then carried out in a peroxidase color development kit (Sumitomo Bakelite Co., Ltd.), and the absorbance was measured at a wavelength of 450 nm.
As to `COc1cc2nccc(Oc3ccc(SCCOc4ccc(C)c(C)c4)cc3)c2cc1OC` [Example 827, 4-(4-{[2-(3,4-Dimethylphenoxy)ethyl]sulfanyl}phenoxy)-6,7-dimethoxyquinoline], the pIC50 is 6.76.
As for `COc1cc2nccc(Oc3ccc(S(=O)(=O)CCOc4ccc(C(C)C)cc4)cc3)c2cc1OC` [Example 835, 4-[(6,7-Dimethoxy-4-quinolyl)oxy]phenyl [2-(4-isopropylphenoxy)ethyl]sulfone], the pIC50 is 6.18.
On to `COc1cc2nccc(Oc3ccc(SCCCOc4cccc(C)c4)cc3)c2cc1OC` [Example 841, 6,7-Dimethoxy-4-(4-{[3-(3-methylphenoxy)propyl]sulfanyl}phenoxy)quinoline], for which the pIC50 was 6.93.
Take `COc1cc2nccc(Oc3ccc(SCCCOc4ccccc4F)cc3)c2cc1OC` [Example 842, 4-(4-{[3-(2-Fluorophenoxy)propyl]sulfanyl}phenoxy)-6,7-dimethoxyquinoline]: the pIC50 was 6.90.
On the same count and under the same terms, then `COc1cc2nccc(Oc3ccc(SCCCCOc4ccccc4F)cc3)c2cc1OC` [Example 843, 4-(4-{[4-(2-Fluorophenoxy)butyl]sulfanyl}phenoxy)-6,7-dimethoxyquinoline], with 6.58; and `COc1cc2nccc(Oc3ccc(SCCCCOc4cccc(C)c4)cc3)c2cc1OC` [Example 844, 6,7-Dimethoxy-4-(4-{[4-(3-methylphenoxy)butyl]sulfanyl}phenoxy)quinoline], with 6.35; and `COc1cc2ncnc(Oc3ccc(SCCCOc4ccccc4F)cc3)c2cc1OC` [Example 845, 4-(4-{[3-(2-Fluorophenoxy)propyl]sulfanyl}phenoxy)-6,7-dimethoxyquinazoline], with 6.34.
For `COc1cc2ncnc(Oc3ccc(SCCCCOc4ccccc4F)cc3)c2cc1OC` [Example 848, 4-(4-{[4-(2-Fluorophenoxy)butyl]sulfanyl}phenoxy)-6,7-dimethoxyquinazoline], the pIC50 is 6.03.
Regarding `COc1cc2ncnc(Oc3ccc(SCCOc4ccccc4F)cc3)c2cc1OC` [Example 849, 4-(4-{[2-(2-Fluorophenoxy)ethyl]sulfanyl}phenoxy)-6,7-dimethoxyquinazoline], the pIC50 was 6.12.
On the same count and under the same terms, in the case of `COc1cc2ncnc(Oc3ccc(SCCOc4cccc(C)c4)cc3)c2cc1OC` [Example 850, 6,7-Dimethoxy-4-(4-{[2-(3-methylphenoxy)ethyl]sulfanyl}phenoxy)quinazoline] it was 6.56; in that of `COc1cc2nccc(Oc3ccc(NCCOc4ccc(Cl)cc4Cl)cc3)c2cc1OC` [Example 851, N-[2-(2,4-Dichlorophenoxy)ethyl]-N-{4-[(6,7-dimethoxy-4-quinolyl)oxy]phenyl}amine], 7.12; in that of `COc1cc2nccc(Oc3ccc(NCCOc4ccccc4C)cc3)c2cc1OC` [Example 852, N-{4-[(6,7-Dimethoxy-4-quinolyl)oxy]phenyl}-N-[2-(2-methylphenoxy)ethyl]amine], 6.75.
For `COc1cc2nccc(Oc3ccc(NCCOc4ccccc4OC)cc3)c2cc1OC` [Example 853, N-{4-[(6,7-Dimethoxy-4-quinolyl)oxy]phenyl}-N-[2-(2-methoxyphenoxy)ethyl]amine], the negative-log IC50 (pIC50) was 6.99.
As for `COc1cc2nccc(Oc3ccc(NCCOc4c(Cl)cccc4Cl)cc3)c2cc1OC` [Example 854, N-[2-(2,6-Dichlorophenoxy)ethyl]-N-{4-[(6,7-dimethoxy-4-quinolyl)oxy]phenyl}amine], the pIC50 is 6.50.
On to `COc1cc2nccc(Oc3ccc(NCCOc4c(C)cccc4C)cc3)c2cc1OC` [Example 855, N-{4-[(6,7-Dimethoxy-4-quinolyl)oxy]phenyl}-N-[2-(2,6-dimethylphenoxy)ethyl]amine], for which the negative logarithm of the IC50 (pIC50) is 6.40.
Same read-out and setting: in the case of `COc1cc2nccc(Oc3ccc(NCCOc4c(OC)cccc4OC)cc3)c2cc1OC` [Example 856, N-[2-(2,6-Dimethoxyphenoxy)ethyl]-N-{4-[(6,7-dimethoxy-4-quinolyl)oxy]phenyl}amine] it was 6.59.
In the case of `COc1cc2nccc(Oc3ccc(NCCOc4c(F)cccc4F)cc3)c2cc1OC` [Example 857, N-[2-(2,6-Difluorophenoxy)ethyl]-N-{4-[(6,7-dimethoxy-4-quinolyl)oxy]phenyl}amine], the pIC50 is 6.71.
Turning to `COc1cc2nccc(Oc3ccc(NCCOc4cc(C)cc(C)c4)cc3)c2cc1OC` [Example 858, N-{4-[(6,7-Dimethoxy-4-quinolyl)oxy]-phenyl}-N-[2-(3,5-dimethylphenoxy)ethyl]amine], the pIC50 was 6.99.
On to `COc1cc2nccc(Oc3ccc(NCCOc4ccc(Cl)cc4)cc3)c2cc1OC` [Example 859, N-[2-(4-Chlorophenoxy)ethyl]-N-{4-[(6,7-dimethoxy-4-quinolyl)oxy]phenyl}amine], for which the pIC50 is 6.89.
Consider `COc1cc2nccc(Oc3ccc(NCCOc4cccc(Cl)c4)cc3)c2cc1OC` [Example 860, N-[2-(3-Chlorophenoxy)ethyl]-N-{4-[(6,7-dimethoxy-4-quinolyl)oxy]phenyl}amine], for which the pIC50 is 7.12.
For `CCc1ccccc1OCCNc1ccc(Oc2ccnc3cc(OC)c(OC)cc23)cc1` [Example 861, N-{4-[(6,7-Dimethoxy-4-quinolyl)oxy]phenyl}-N-[2-(2-ethylphenoxy)ethyl]amine], the pIC50 was 6.88.
With `COc1cc2ncnc(Oc3ccc(NCCOc4ccccc4C)cc3)c2cc1OC` [Example 862, N-{4-[(6,7-Dimethoxy-4-quinazolinyl)oxy]phenyl}-N-[2-(2-methylphenoxy)ethyl]amine], the pIC50 is 6.03.
Same read-out and setting: then `COc1ccc(OCCNc2ccc(Oc3ccnc4cc(OC)c(OC)cc34)cc2)cc1` [Example 863, N-{4-[(6,7-Dimethoxy-4-quinolyl)oxy]phenyl}-N-[2-(4-methoxyphenoxy)ethyl]amine], with 7.51; and `CCc1ccc(OCCNc2ccc(Oc3ccnc4cc(OC)c(OC)cc34)cc2)cc1` [Example 864, N-{4-[(6,7-Dimethoxy-4-quinolyl)oxy]phenyl}-N-[2-(4-ethylphenoxy)ethyl]amine], with 7.49.

Staying with this test, now noted: Mo7e, figure in parentheses in −( ); at 1000 nM.
For the molecule `COc1cc2nccc(Oc3ccc(S(=O)(=O)CCOc4ccc(C)c(C)c4)cc3)c2cc1OC` [Example 833, 4-[(6,7-Dimethoxy-4-quinolyl)oxy]phenyl [2-(3,4-dimethylphenoxy)ethyl]sulfone], the inhibition at 1 µM is 26%.
On the same count and under the same terms, in the case of `COc1cc2nccc(Oc3ccc(S(=O)(=O)CCOc4ccccc4C(C)C)cc3)c2cc1OC` [Example 836, 4-[(6,7-Dimethoxy-4-quinolyl)oxy]phenyl [2-(2-isopropylphenoxy)ethyl]sulfone] it was 39%; in that of `COc1cc2nccc(Oc3ccc([S+]([O-])CCOc4ccc(Cl)cc4Cl)cc3)c2cc1OC` (centres unmarked) [Example 840, [2-(2,4-Dichlorophenoxy)ethyl]{4-[(6,7-dimethoxy-4-quinolyl)oxy]phenyl} sulfoxide], 14%.
The same measure, in the same setting: in the case of `COc1cc2ncnc(Oc3ccc(SCCCOc4cccc(C)c4)cc3)c2cc1OC` [Example 846, 6,7-Dimethoxy-4-(4-{[3-(3-methylphenoxy)propyl]sulfanyl}phenoxy)quinazoline] it was 33%; in that of `COc1cc2ncnc(Oc3ccc(SCCCCOc4cccc(C)c4)cc3)c2cc1OC` [Example 847, 6,7-Dimethoxy-4-(4-{[4-(3-methylphenoxy)butyl]sulfanyl}phenoxy)quinazoline], 9%.

For the origin of these results see patent US7135466B2 (Kirin Beer Kabushiki Kaisha, priority 1999, dated 2006).
